Reference: patent publication US20220409581A1, “METHODS AND COMPOSITIONS FOR TREATMENT OF SOLID TUMORS USING F16 ISOINDOLE SMALL MOLECULES” (Nova Southeastern University, priority 2019, published 2022)
Entries after “also recorded” stand apart in the source; their conditions may differ.

Assays:
[1] = tested on: recurrent GBM; details: cited from earlier work
[2] = rats and monkeys; cited from earlier work
[3] = tested on: U87MG cells; experiment: MTT cytotoxicity assay; format: cell-based; details: Homo sapiens, U-87 MG, 24 h, read-out: IC50 (50% reduction of U87MG cell viability)
Protocol: The cell viability was assessed using a 3-(4,5-dimethylthiazol-2-yl)-2, 5-diphenyltetrazolium bromide (MTT) assay (Sigma-Aldrich, St. Louis, Mo., USA), and trypan blue dye exclusion method (TBDE). For the MTT assay, U87MG cells were cultured in a 96 well-plate at a density of 5×10^3 per well and incubated at 37° C. under 5% CO2 for 24 h. Then, the cells were treated with different concentrations of F16 (0.1-100 μM) and TMZ (0.1-500 μM) for 24 h. At the end of treatment, the old medium was aspirated, and 10 μL of MTT (0.5 mg/mL in PBS) was added to each well and the cells were incubated at 37° C. for an additional 3 h. Finally, the MTT solution was removed, and 100 μL of dimethyl sulfoxide (DMSO) was added to each well. The plate was gently rotated on an orbital shaker for 10 min to completely dissolve the precipitation and the absorbance was measured at 570 nm using Microplate Reader (VersaMax, Molecular Devices, Sunnyvale, Calif., USA). For the TBDE method, U87MG cells were cultured in a 24 well-plate at a density of 5×10^4 per well and incubated at 37° C. under 5% CO2 for 48 h. Then, the cells were treated with different concentrations of F16 (0.1-100 μM) and TMZ (10-1000 μM). […] The viable cells were counted with a Bio-Rad TC20™ Automated Cell Counter (Hercules, Calif., USA)

[4] = tested on: U87MG cells; experiment: Trypan blue dye exclusion method (TBDE); format: cell-based, human; details: F16 100 μM, TMZ 1000 μM
Protocol: The cell viability was assessed using a 3-(4,5-dimethylthiazol-2-yl)-2, 5-diphenyltetrazolium bromide (MTT) assay (Sigma-Aldrich, St. Louis, Mo., USA), and trypan blue dye exclusion method (TBDE). For the MTT assay, U87MG cells were cultured in a 96 well-plate at a density of 5×10^3 per well and incubated at 37° C. under 5% CO2 for 24 h. Then, the cells were treated with different concentrations of F16 (0.1-100 μM) and TMZ (0.1-500 μM) for 24 h. At the end of treatment, the old medium was aspirated, and 10 μL of MTT (0.5 mg/mL in PBS) was added to each well and the cells were incubated at 37° C. for an additional 3 h. Finally, the MTT solution was removed, and 100 μL of dimethyl sulfoxide (DMSO) was added to each well. The plate was gently rotated on an orbital shaker for 10 min to completely dissolve the precipitation and the absorbance was measured at 570 nm using Microplate Reader (VersaMax, Molecular Devices, Sunnyvale, Calif., USA). For the TBDE method, U87MG cells were cultured in a 24 well-plate at a density of 5×10^4 per well and incubated at 37° C. under 5% CO2 for 48 h. Then, the cells were treated with different concentrations of F16 (0.1-100 μM) and TMZ (10-1000 μM). After 24, 48, and 72 h of treatments, an aliquot (50 μL) of the cell suspension from each treatment was mixed with 1:1 (v/v) volume of 0.4% trypan blue. The viable cells were counted with a Bio-Rad TC20™ Automated Cell Counter (Hercules, Calif., USA)

[5] = tested on: Glioblastoma multiforme (GBM); details: human, in vivo; cited from earlier work
[6] = tested on: U87MG-luc intracranial xenograft; experiment: Intracranial glioblastoma xenograft model with bioluminescence imaging
Protocol: For tolerability study, 8-10 weeks old male BALB/c mice weighing approximately 25 g were used (Charles Rivers, US). For intracranial study, 8-10 weeks old female athymic nude (Nu/Nu) mice weighing approximately 25 g were used (Taconic Biosciences, US). All animals were housed in pathogen-free ventilated cages under environmentally controlled conditions of humidity and temperature (22° C.; 12:12 h light-dark cycle) with free access to pathogen-free food and water.
F16 (100 mg/kg) was dissolved in a 10% DMSO+90% KolliphorEL (KP). TMZ (50 mg/kg) was dissolved in 10% DMSO+90% phosphate-buffered saline (PBS). All drugs were prepared fresh before the scheduled injection [21]. The total volume of injection was 100 μL/mouse for all experiments which was administered intraperitoneally.
For intracranial study, the glioblastoma xenograft model was developed using athymic nude (Nu/Nu) mice. Briefly, mice were placed under general anesthesia (intraperitoneal injection of 100 mg/kg Ketamine and 10 mg/kg Xylazine) and were positioned in the stereotaxic device. A median incision of ˜1 cm was made, and a burr hole was drilled into the right striatum of the skull (1.0 mm forward and 2.0 mm lateral to the bregma). Subsequently, U87MG cells expressing the luc reporter gene (2×10^5 cells in 3 μL PBS) was injected using a 10-μl Hamilton syringe at the rate of 1 μL/min at a depth of 3 mm. Once injection was completed, the needle was kept in place for 2 minutes and then slowly removed, and the hole was sealed with a sterile bone wax. The incision was closed, and triple antibiotic ointment was applied. One week after tumor cell transplantation, mice were divided randomly into five groups (n=5 in each group): 1) control treated with DMSO in PBS, 2) control treated with DMSO in KP, 3) treated with F16 (100 mg/kg), 4) treated with temozolomide (50 mg/kg) and 5) treated with F16 (100 mg/kg) and 3 h later treated with temozolomide (50 mg/kg). One more group with no tumor implant was added to the study as a negative control (n=5). The experimental mice were treated twice per week for 3 weeks.
Bioluminescence imaging (BLI) was used to assess and confirm tumor growth in intracranial xenograft. BLI was carried out in vivo using the Bruker Xtreme which is a sensitive optical X-ray machine designed for preclinical in vivo study based on BLI concept. Briefly, mice were injected intraperitoneally with D-luciferin (Sigma) dissolved in saline at a dose of 150 mg/kg body weight. Immediately after the injection, mice were anesthetized by isoflurane and series of bioluminescent images was acquired with 3-minutes acquisition intervals for approximately 20 minutes, by which time, the luciferin had been washed out. The image with the peak BLI intensity was used for quantification in units of photon counts.

[7] = tested on: U87MG cells; experiment: Trans-well migration assay; format: cell-based, human; details: 24 h; F16 20 μM, TMZ 400 μM
Protocol: The migration ability of U87MG cell was determined using both scratch and trans-well assays. For the scratch assay, monolayer of U87MG cells was grown on 6-well plates close to 80% confluency. Using a sterile 200 μL tip, a single straight line scratch was made in each well. The wells were washed with phosphate-buffered saline (PBS) and refilled with growth medium containing various concentrations of F16 (0.1-20 μM) and TMZ (10-400 μM). The images were captured using Leica microscope at 12 h and 24 h post-scratch. For the trans-well migration assay, 6.5 mm trans-well plates polycarbonate membrane inserts (Corning, N.Y., USA) with 8 μm pore size were used. After an initial equilibrium period, 5×10^4 cells suspended in 100 μL basal medium without FBS were added to the upper compartment of the trans-well inserts and exposed to different concentrations of F16 (0.1-20 μM) and TMZ (10-400 μM). The lower chamber was filled with 600 μL of EMEM medium supplemented with 10% fetal bovine serum. Then, trans-well plates were incubated at 37° C. under 5% CO2 for 24 h to allow for the migration of U87MG cells across the porous membrane. […] Five different fields per well were captured with a Leica microscope (DMI 3000 B; IL, USA) using 10× magnification, and the number of cells that penetrated the membrane was counted using ImageJ software (NIH Image, Bethesda, Md., USA).

[8] = Tolerability / toxicity study; details: i.p. twice a week for 4 weeks
Protocol: For tolerability study, 8-10 weeks old male BALB/c mice weighing approximately 25 g were used (Charles Rivers, US). […] All animals were housed in pathogen-free ventilated cages under environmentally controlled conditions of humidity and temperature (22° C.; 12:12 h light-dark cycle) with free access to pathogen-free food and water. All animal care and experiments were performed in accordance with the guidelines and approval of the Institutional Animal Care and Use Committee (IACUC) of Nova Southeastern University (NSU), Ft. Lauderdale, Fla.
TMZ (50 mg/kg) was dissolved in 10% DMSO+90% phosphate-buffered saline (PBS). All drugs were prepared fresh before the scheduled injection [21]. The total volume of injection was 100 μL/mouse for all experiments which was administered intraperitoneally.
For tolerability studies, BALB/c mice were randomly assigned to 4 different treatment groups (FIG. 15: Table 1). At the end of the treatment period, blood samples from all the mice were collected and sent to the Department of Comparative Pathology at the University of Miami (City of Miami, Fla.) to analyze the hematological and biochemical parameters.
Mice injected with KP were used as controls. All drugs were administered as i.p. injections twice a week for 4 weeks. Independent toxicity evaluations, serum biochemistry, post-mortem gross examination, and histopathological examination of major organs were performed at Comparative Pathology Department at the University of Miami, Fla.

[9] = tested on: U87MG derived xenograft tumor; format: in vivo
Protocol: Lauderdale, Fla. Animals were subcutaneously injected into the right flank of each mouse, with 4×10^6 of U87MG glioblastoma cancer cells suspended in 100 μL of PBS mixed with Matrigel (BD Biosciences). […] The experimental mice were treated once in every 2 days for the period of 16 days. At the end of the treatment, the tumors were isolated and then the tumor length (L) and width (W) were measured to calculate the tumor volume (TV) according to the formula: TV=1/2×(L×W^2). To determine the tumor inhibitory effects of F16 and TMZ treatments, the inhibition ratio (IR) was calculated using the formula: […]
At the end of the treatment, all the animals in the control and experimental groups were sacrificed and tumors were excised and weighed.

Compound: Bevacizumab [BVZ]
- overall survival (OS) ([1]; patients with (recurrent) GBM): no improvement; also recorded: failed to improve
- progression free survival (PFS) ([1]; recurrent GBM): did improve

Compound: Cn1nnc2c(C(N)=O)ncn2c1=O [TMZ, Temozolomide, reference compound]
- levels of TMZ in the brain as % of the plasma concentration [2]: 30-40%
- IC50 [3]: 430 µM
- maximum percentage of U87MG cells death ([4]; 24 h): 68%
- maximum percentage of U87MG cells death ([4]; 48 h): 95%
- maximum percentage of U87MG cells death ([4]; 72 h): 82%
- TMZ treated patients who develop significant toxicity [5]: 15-20%
- body weight ([6]; compared to mice treated with vehicles (PBS/KP)): No significant change
- tumor inhibition ([6]; intracranial xenograft model): 99%
- condition of excised brains ([6]; mouse, in vivo): fragile and damaged
- mice that lived until day 50 post implantation ([6]; mouse, in vivo): 60%
- median survival ([6]; vehicles-PBS 34 days, vehicles-KP 36 days): 47 days
- U87MG cells trapped in the upper compartment as compared to untreated cells [7]: About 80%
- ALT level (liver function) [8]: Significant elevation; also recorded: significantly elevating
- BUN levels (kidney function) [8]: No significant changes
- RBC [8]: slight increase
- WBC counts [8]: significant increase
- hematocrit [8]: slight increase
- suppression of tumor growth ([9]; i.p., once every 2 days for 16 days, F16 100 mg/kg, TMZ 50 mg/kg, combination of both): 53%
- signs of toxicity / tolerability ([9]; mouse, in vivo): symptoms of toxicity
